Measurements from patent US7829584B2, “Pyridines and pyridine N-oxides as modulators of thrombin” (Janssen Pharmaceutica NV, priority 2006, dated 2010).

Target: T1, Human α-thrombin (Homo sapiens, UniProt P00734)
T1 construct: Human α-thrombin (Enzyme Research Laboratories HT1002a); purchased Enzyme Research Laboratories (South Bend, Ind.) HT1002a
Assay: In vitro inhibition of purified enzyme, kinetic analysis by chromogenic substrates (Thrombin assay)
Format: biochemical
Conditions: substrate SucAAPR pNA 100 uM, 37° C., pH 7.5, 405 nm, thrombin 1.1 nM
Description: In Vitro Inhibition of Purified Enzyme
Reagents: All buffer salts were obtained from Sigma Chemical Company (St. Louis, Mo.), and were of the highest purity available.
Human α-thrombin, was obtained from Enzyme Research Laboratories (South Bend, Ind.).
Kinetic Analysis by Chromogenic Substrates
Compounds were assessed for their inhibitory activity toward Thrombin by kinetic analysis using para-nitroaniline chromogenic substrates monitored at 405 nm. The assay buffer employed was 50 mM HEPES, pH 7.5, 200 mM NaCl, and fresh 0.05% n-octyl β-d-glucopyranoside. DMSO was present at a final concentration of 4%, derived from the substrate and inhibitory compound stock solutions. […] Reactions were initiated by addition of 10 μL protease, and increase in absorbance due to proteolytic cleavage of substrate was kinetically monitored at 37° C., 405 nm with a Molecular Devices Spectramax 340 plate reader. Initial velocities were determined by analysis of the initial linear portion of the reactions. Plots of vo/vi vs. inhibitor concentration, where vo=velocity without inhibitor, and vi=inhibited velocity, were fit to a linear regression line, and IC50 was determined from the reciprocal of the slope. Ki was calculated from IC50 using the Ki factor specific for the assay as: Ki=IC50×Ki factor, or Ki=IC50×(1/(1+[S]/Km)), where S is the substrate concentration in the assay, and Km is the Michaelis constant for the substrate (Cheng Y and Prusoff W H (1973) Biochem Pharmacol 22: 3099-3108).
The Thrombin assay incorporated substrate SucAAPR pNA (Bachem L-1720, [S]=100 uM final, Km=320 μM, Ki factor=0.76). Substrate in DMSO (10.7 mM) was diluted in assay buffer 100-fold for 100 μM final. Human α-thrombin (Enzyme Research Laboratories HT1002a) was diluted 1500-fold in assay buffer for a final assay concentration of 1.1 nM.

Compound	IC50
N#Cc1ccc(NCC(F)(F)c2ccccn2)[n+]([O-])c1CC(=O)NCc1cncc(Cl)c1 [Cpd 12, 3-cyano-6-(2,2-difluoro-2-pyridin-2-yl-ethylamino)-2-(5-chloro-pyridin-3-ylmethyl)aminocarbonylmethyl-pyridine 1-oxide]	~66 nM
N#Cc1ccc(NCC(F)(F)c2ccccn2)[n+]([O-])c1CC(=O)NCc1ccc2c(N)noc2c1 [Cpd 4, 3-cyano-6-(2,2-difluoro-2-pyridin-2-yl-ethylamino)-2-(3-amino-benzo[d]isoxazol-6-ylmethyl)aminocarbonylmethyl-pyridine 1-oxide]	~6.1 nM
N#Cc1ccc(NCC(F)(F)c2ccccc2)[n+]([O-])c1CC(=O)NCCONC(=N)N [Cpd 1, 3-cyano-6-(2,2-difluoro-2-phenyl-ethylamino)-2-{2-[(aminoiminomethyl)aminooxy]ethyl}aminocarbonylmethyl-pyridine 1-oxide]	~0.13 nM
N=C(N)NOCCNC(=O)Cc1nc(NCC(F)(F)c2ccccc2)ccc1Cl [Cpd 11, N-{2-[(aminoiminomethyl)aminooxy]ethyl}-2-[3-chloro-6-(2,2-difluoro-2-phenyl-ethylamino)-pyridin-2-yl]-acetamide]	~370 nM
N=C(N)NOCCNC(=O)Cc1c(Cl)ccc(NCC(F)(F)c2ccccc2)[n+]1[O-] [Cpd 2, 3-chloro-6-(2,2-difluoro-2-phenyl-ethylamino)-2-{2-[(aminoiminomethyl)aminooxy]ethyl}aminocarbonylmethyl-pyridine 1-oxide]	~0.54 nM
N#Cc1ccc(NCC(F)(F)c2ccccn2)[n+]([O-])c1CC(=O)NCc1ccc2onc(N)c2c1 [Cpd 3, 3-cyano-6-(2,2-difluoro-2-pyridin-2-yl-ethylamino)-2-(3-Amino-benzo[d]isoxazol-5-ylmethyl)aminocarbonylmethyl-pyridine 1-oxide]	~280 nM
N#Cc1ccc(NCC(F)(F)c2ccccn2)[n+]([O-])c1CC(=O)NCc1ccc2ccnc(N)c2c1 [Cpd 5, 3-cyano-6-(2,2-difluoro-2-pyridin-2-yl-ethylamino)-2-(1-Amino-isoquinolin-7-ylmethyl)aminocarbonylmethyl-pyridine 1-oxide]	~42 nM

More lines, now with the values ahead:

IC50	Compound
~3.4 nM	N#Cc1ccc(NCC(F)(F)c2ccc(F)cc2)[n+]([O-])c1CC(=O)NCc1cnccc1-n1cncn1 [Cpd 8, 3-cyano-6-(2,2-difluoro-2-(4-fluoro-phenyl)-ethylamino)-2-(4-[1,2,4]triazol-1-yl-pyridin-3-ylmethyl)aminocarbonylmethyl-pyridine 1-oxide]
~200 nM	N#Cc1ccc(NCC(F)(F)c2ncccn2)[n+]([O-])c1CC(=O)NCc1cnccc1-n1cncn1 [Cpd 9, 3-cyano-6-(2,2-difluoro-2-pyrimidin-2-yl-ethylamino)-2-(4-[1,2,4]triazol-1-yl-pyridin-3-ylmethyl)aminocarbonylmethyl-pyridine 1-oxide]
~170 nM	N#Cc1ccc(NCC(F)(F)c2ccccn2)[n+]([O-])c1CC(=O)NCc1cccnc1-n1cncn1 [Cpd 10, 3-cyano-6-(2,2-difluoro-2-pyridin-2-yl-ethylamino)-2-(2-[1,2,4]triazol-1-yl-pyridin-3-ylmethyl)aminocarbonylmethyl-pyridine 1-oxide]
~0.44 nM	N#Cc1ccc(NCC(F)(F)c2ccccn2)[n+]([O-])c1CC(=O)NCc1c(F)cccc1-n1cncn1 [Cpd 7, 3-cyano-6-(2,2-difluoro-2-pyridin-2-yl-ethylamino)-2-(2-[1,2,4]triazol-1-yl-6-fluoro-phenylmethyl)aminocarbonylmethyl-pyridine 1-oxide]
~3.3 nM	N#Cc1ccc(NCC(F)(F)c2ccccn2)[n+]([O-])c1CC(=O)NCc1cnccc1-n1cncn1 [Cpd 6, 3-cyano-6-(2,2-difluoro-2-pyridin-2-yl-ethylamino)-2-(4-[1,2,4]triazol-1-yl-pyridin-3-ylmethyl)aminocarbonylmethyl-pyridine 1-oxide]
